# In ChEMBL document CHEMBL1201862, “PubChem BioAssay data set” (2004):
# The source made the active and inactive calls.
# Assays:
# Cytochrome P450 2C9 = Cytochrome P450 2C9 (Homo sapiens, UniProt P11712)
# [1] = cytotoxicity toward NIH3T3 fibroblasts, dose response, counter-screen, cell-based, ATP luminescence, mouse fibroblasts (AID 2010); format: functional;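 note: cells exposed to compound for about 90 hours before reading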
# [2] = inhibitors of intracellular T. cruzi replication, confirmation, NIH3T3 host cells, beta-gal luminescence (AID 2044); format: functional, cell-based;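 note: intracellular parasites grown in NIH/3T3 mouse fibroblasts as host cells; luminescent beta-galactosidase reporter signal from transgenic T. cruzi replicating inside host cells; inhibitors lower the luminescence signal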
# Cytochrome P450 1A2 = molecular target: T1, Cytochrome P450 1A2 (Homo sapiens, UniProt P05177);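 note: PubChem cytochrome P450 panel assay, CYP1A2 panel member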
# T1 sequence (P05177 whole entry): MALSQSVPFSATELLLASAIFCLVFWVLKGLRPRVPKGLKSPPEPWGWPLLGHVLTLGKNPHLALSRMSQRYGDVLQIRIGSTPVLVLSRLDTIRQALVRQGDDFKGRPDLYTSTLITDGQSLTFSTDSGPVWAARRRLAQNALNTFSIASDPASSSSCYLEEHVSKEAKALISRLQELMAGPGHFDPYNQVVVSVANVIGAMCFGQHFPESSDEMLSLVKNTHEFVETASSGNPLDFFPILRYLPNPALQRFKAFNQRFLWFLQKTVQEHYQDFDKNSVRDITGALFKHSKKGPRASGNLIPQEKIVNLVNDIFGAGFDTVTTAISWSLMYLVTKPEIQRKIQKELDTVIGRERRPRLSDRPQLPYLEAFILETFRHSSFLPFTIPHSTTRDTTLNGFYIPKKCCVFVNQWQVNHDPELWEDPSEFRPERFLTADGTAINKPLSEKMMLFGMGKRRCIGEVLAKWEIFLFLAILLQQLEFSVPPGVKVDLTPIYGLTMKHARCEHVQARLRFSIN
# Cytochrome P450 3A4 = Cytochrome P450 3A4 (Homo sapiens, UniProt P08684);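 note: CYP3A4 tested as one member of a cytochrome P450 panel screen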
# [3] = molecular target: T2, Corticotropin-releasing factor receptor 2/Corticotropin-releasing factor-binding protein (Homo sapiens, UniProt P24387+Q13324); assay: activators of CRF receptor 2 with binding protein – uHTS hits, confirmation (AID 602473); format: functional; conditions: read-out: EC50_Mean
# T2 sequence (Q13324 whole entry): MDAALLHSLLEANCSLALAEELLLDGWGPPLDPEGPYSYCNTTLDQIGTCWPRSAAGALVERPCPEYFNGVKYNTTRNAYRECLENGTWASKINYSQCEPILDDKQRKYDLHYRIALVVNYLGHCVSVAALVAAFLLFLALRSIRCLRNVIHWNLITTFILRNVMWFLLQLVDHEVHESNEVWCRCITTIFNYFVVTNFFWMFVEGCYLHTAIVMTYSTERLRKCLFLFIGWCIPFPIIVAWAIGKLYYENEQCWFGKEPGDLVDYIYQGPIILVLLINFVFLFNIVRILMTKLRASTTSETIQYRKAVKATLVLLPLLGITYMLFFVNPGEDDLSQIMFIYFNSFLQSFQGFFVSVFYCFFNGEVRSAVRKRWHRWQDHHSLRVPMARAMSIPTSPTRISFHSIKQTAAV
# T2 sequence (P24387 whole entry): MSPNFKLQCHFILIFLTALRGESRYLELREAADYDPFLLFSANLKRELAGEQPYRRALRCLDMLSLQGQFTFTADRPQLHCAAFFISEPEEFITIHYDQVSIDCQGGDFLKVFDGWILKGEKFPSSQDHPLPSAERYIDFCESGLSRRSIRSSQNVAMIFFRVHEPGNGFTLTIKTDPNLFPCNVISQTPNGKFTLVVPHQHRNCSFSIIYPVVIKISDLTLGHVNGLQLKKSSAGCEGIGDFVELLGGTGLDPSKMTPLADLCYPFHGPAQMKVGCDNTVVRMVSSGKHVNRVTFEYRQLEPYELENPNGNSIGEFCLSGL
# H4 = assay: Luminescence Cell-Based Dose Response HTS to Identify Activators of 5'UTR Stem-Loop Driven Prion Protein mRNA Translation in H4 Neuroglioblastoma Cells. [Related pubchem assays: 1829 (Project Summary), 1814 (Primary HTS)]; format: functional; conditions: Homo sapiens
# [4] = Luminescence Cell-Based Dose Response HTS to Identify Activators of Luciferase Translation or Activity in H4 […] Cells. [Related pubchem assays: 1829 (Project Summary), 1814 (Primary HTS)]; format: functional
# [5] = NIH-3T3 fibroblast cytotoxicity, dose response, cytotoxicity control, cell-based, fluorescence, Alamar Blue, secondary assay (AID 2327); format: functional;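 note: NIH-3T3 mouse fibroblasts cultured with fluconazole at 8 µg/mL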
# cells = format: functional
# Cytochrome P450 2C9, sequence (P11712 whole entry): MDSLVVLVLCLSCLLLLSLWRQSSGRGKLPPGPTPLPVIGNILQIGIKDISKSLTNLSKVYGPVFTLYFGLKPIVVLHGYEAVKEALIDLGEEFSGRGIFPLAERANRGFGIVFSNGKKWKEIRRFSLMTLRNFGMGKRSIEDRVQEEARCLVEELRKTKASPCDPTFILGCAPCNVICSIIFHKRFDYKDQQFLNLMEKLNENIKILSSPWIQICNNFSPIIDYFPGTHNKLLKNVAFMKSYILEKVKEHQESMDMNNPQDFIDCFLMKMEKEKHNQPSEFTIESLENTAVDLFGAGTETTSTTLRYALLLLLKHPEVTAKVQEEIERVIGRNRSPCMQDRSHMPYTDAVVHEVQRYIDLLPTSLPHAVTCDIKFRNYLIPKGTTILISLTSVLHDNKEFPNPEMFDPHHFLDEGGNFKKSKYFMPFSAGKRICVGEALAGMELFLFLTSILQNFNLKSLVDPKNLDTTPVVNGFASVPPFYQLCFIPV
# Cytochrome P450 3A4, sequence (P08684 whole entry): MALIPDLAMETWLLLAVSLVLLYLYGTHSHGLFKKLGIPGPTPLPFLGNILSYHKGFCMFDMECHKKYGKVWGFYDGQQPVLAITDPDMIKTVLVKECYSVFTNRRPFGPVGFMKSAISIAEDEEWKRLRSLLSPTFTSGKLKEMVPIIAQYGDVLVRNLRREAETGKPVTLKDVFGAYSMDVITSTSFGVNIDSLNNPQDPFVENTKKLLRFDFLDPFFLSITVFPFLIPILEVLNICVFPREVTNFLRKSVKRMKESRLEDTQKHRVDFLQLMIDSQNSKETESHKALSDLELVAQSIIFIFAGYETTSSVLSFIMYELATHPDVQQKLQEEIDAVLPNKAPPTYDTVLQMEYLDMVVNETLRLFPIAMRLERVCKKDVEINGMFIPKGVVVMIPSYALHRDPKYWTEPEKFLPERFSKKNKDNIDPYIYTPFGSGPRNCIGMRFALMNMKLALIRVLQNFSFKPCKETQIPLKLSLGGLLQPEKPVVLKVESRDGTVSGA
structure (smiles),measurement,setting,value
CC(C)=CC(=O)OCC(=O)Nc1ncc(Cl)c(C)c1Cl,AC50,Cytochrome P450 2C9,0.0631 µM (inconclusive)
O=C1CCCN1CC(CN1CCOCC1)Sc1nnnn1-c1ccccc1 (stereo unspecified),AC50,Cytochrome P450 2C9,6.31 µM (inconclusive)
CCOC(=O)c1c(NC(=O)Cn2cnc([N+](=O)[O-])n2)sc(C)c1C,EC50,[1],> 30 µM (not active)
same,EC50,[2],0.191 µM (active)
Cn1c(=O)c(-c2cc(F)cc(F)c2)nc2cnc(N3CCOCC3)nc21,AC50,Cytochrome P450 1A2,5.01 µM (inconclusive)
O=c1c2ccccc2nc(SCc2ccccc2Cl)n1Cc1ccccc1,AC50,Cytochrome P450 3A4,15.8 µM (inconclusive)
O=C(NCc1ccccc1)C12CN(Cc3ccccc3)CC1C(c1cccc([N+](=O)[O-])c1)=NO2 (stereo unspecified),AC50,Cytochrome P450 1A2,15.8 µM (inconclusive)
c1nc(NCCN2CCOCC2)c2cc(-c3ccoc3)ccc2n1,AC50,Cytochrome P450 3A4,15.8 µM (inconclusive)
CCCCCCc1cc2cc(C(=O)Nc3ccccc3OC)c(=O)oc2cc1O,EC50,[3],1.97 µM (active)
CO[C@@H]1COC(=O)C/C=C\[C@H](C)COC(=O)[C@H](Cc2ccccc2)NC(=O)C/C=C\[C@H]1C,AC50,Cytochrome P450 3A4,6.31 µM (inconclusive)
CC1CCN(c2cc(N3CCC(C)CC3)c([N+](=O)[O-])cc2/C=C(\C#N)c2nn(-c3ccccc3)c(N)c2C#N)CC1,AC50,Cytochrome P450 3A4,3.98 µM (inconclusive)
COc1ccc(-n2c(=O)cnc3cnc(N4CCNCC4)nc32)cc1,AC50,Cytochrome P450 2C9,39.8 µM (inconclusive)
COC(=O)[C@@H]1CC[C@H](C)[C@@H](c2ccc(C)cc2)N1C(=O)c1ccc(/C=N\O[C@@H]2O[C@H](COC(C)=O)[C@H](OC(C)=O)[C@H](OC(C)=O)[C@H]2OC(C)=O)cc1,AC50,Cytochrome P450 2C9,1.58 µM (inconclusive)
Cc1cccc(-c2nsc(SCC(=O)N3CCCC3)n2)c1,EC50,H4,0.217 µM (active)
same,EC50,[4],0.104 µM (active)
Cc1ccc(C(C)C)cc1OCC(=O)Nc1ccc(N2CCCCC2)cc1,EC50,[1],> 16 µM (not active)
same,EC50,[2],2.03 µM (active)
O=C(CSc1nc2ccccc2c(=O)n1Cc1ccccc1)NCc1ccco1,AC50,Cytochrome P450 1A2,1.41 µM (inconclusive)
same,AC50,Cytochrome P450 3A4,39.8 µM (inconclusive)
COCCn1c(=O)c(-c2ccccc2)nc2cnc(Oc3cccc(Cl)c3)nc21,AC50,Cytochrome P450 3A4,20 µM (inconclusive)
COc1ccc(-n2c(=O)c(-c3cccs3)nc3cnc(Oc4ccccc4)nc32)cc1,AC50,Cytochrome P450 2C9,12.6 µM (inconclusive)
CN1Cc2cccc3c2C(Cc2ccccc2S3)C1 (stereo unspecified),EC50,[1],> 30 µM (not active)
same,EC50,[2],0.451 µM (active)
COC(=O)[C@@H]1CC[C@H](C)[C@@H](c2ccc(C)cc2)N1C(=O)c1ccc(/C=N\O[C@@H](C)CN2CCCCc3nc(C)c(C)cc32)cc1,AC50,Cytochrome P450 3A4,3.16 µM (inconclusive)
same,AC50,Cytochrome P450 2C9,3.16 µM (inconclusive)
CC(=O)c1sc2nc(-c3ccccc3)cc(C)c2c1N,EC50,[1],> 60 µM (not active)
same,EC50,[2],0.638 µM (active)
CSc1cccc(CN2CCCC(CO)(Cc3cccc(Cl)c3)C2)c1 (stereo unspecified),EC50,[1],> 30 µM (not active)
same,EC50,[2],0.514 µM (active)
COC[C@H]1OC(=O)c2coc3c2[C@@]1(C)C1=C(C3=O)[C@H]2CCC(=O)[C@@]2(C)C[C@H]1OC(C)=O,AC50,Cytochrome P450 1A2,31.6 µM (inconclusive)
same,AC50,Cytochrome P450 3A4,7.94 µM (inconclusive)
O=C(Nc1ccc(OC(=O)c2cccnc2)cc1)c1cccnc1,AC50,Cytochrome P450 3A4,12.6 µM (inconclusive)
Cc1cc(C)n(-c2cc(N3CCN(C(=O)c4ccc(C(C)(C)C)cc4)CC3)ccc2[N+](=O)[O-])n1,AC50,Cytochrome P450 3A4,35.5 µM (inconclusive)
Cc1ccc(NC(=O)NNC(=O)c2cc3ccccc3cc2O)c(C)c1,EC50,[5],> 150 µM (inconclusive)
Cn1c(=O)c(Oc2ccc(F)cc2)c(O)c2ccccc21,IC50,cells,1.87 µM (active)
CS(=O)(=O)N(CC(=O)Nc1cccc(F)c1)c1cccc([N+](=O)[O-])c1,AC50,Cytochrome P450 3A4,17.8 µM (inconclusive)
CCOc1cc(CNCCc2ccc(S(N)(=O)=O)cc2)cc(Cl)c1OCc1ccccc1,EC50,[1],> 60 µM (not active)
same,EC50,[2],0.373 µM (active)
COc1cccc(NC(=S)N(Cc2ccc(C)cc2)Cc2ccccn2)c1,EC50,[1],> 60 µM (not active)
same,EC50,[2],0.764 µM (active)
Cc1nc2cnc(Oc3ccccc3)nc2n(CCc2ccccc2)c1=O,AC50,Cytochrome P450 1A2,3.16 µM (inconclusive)
same,AC50,Cytochrome P450 3A4,20 µM (inconclusive)
O=C(Nc1ccccc1)[C@@]12C[C@@H]1/C(=N/O)c1ccccc1O2,AC50,Cytochrome P450 2C9,20 µM (inconclusive)
O=S(=O)(c1ccccc1)N1CCC[C@@]2(CCN(Cc3nccs3)C2)C1,AC50,Cytochrome P450 2C9,31.6 µM (inconclusive)
CN1CCN(CC(O)c2ccccc2)CC1 (stereo unspecified),EC50,[1],31.2 µM (active)
same,EC50,[2],0.934 µM (active)
CCOC(=O)c1cc(CC)sc1NC(=O)C(c1ccccc1)c1ccccc1,AC50,Cytochrome P450 3A4,11.2 µM (inconclusive)
Cc1ccc(C2=NN(C)c3nc4ccccc4n3C2)cc1,IC50,cells,8.22 µM (active)
COC(=O)C1CC(=O)N(c2ccc(OCc3ccccc3Cl)cc2)C1 (stereo unspecified),IC50,cells,2.2 µM (active)
CN1CCC(NC(=O)Nc2ccc(Br)cc2)CC1,EC50,[1],> 60 µM (not active)
same,EC50,[2],0.188 µM (active)
CC/C=C\CC[C@H](OC(=O)c1ccc(Br)cc1)C1=CCCCC1=O,AC50,Cytochrome P450 3A4,3.98 µM (inconclusive)
same,AC50,Cytochrome P450 2C9,3.16 µM (inconclusive)
Cc1ccc(C2=Nc3ccccc3S[C@@H](c3cccc([N+](=O)[O-])c3)C2)cc1,AC50,Cytochrome P450 1A2,2 µM (inconclusive)
COc1cc(-c2nc(-c3cc([N+](=O)[O-])ccc3C)c(-c3ccccc3)[nH]2)cc(OC)c1OC,EC50,[1],> 60 µM (not active)
same,EC50,[2],0.561 µM (active)
CCN1CCc2c(sc(NC(=O)c3ccc(S(=O)(=O)N(CC)c4ccccc4)cc3)c2C(N)=O)C1,EC50,[3],4.85 µM (active)
C[C@@H]1C[C@H]2[C@H]3C[C@@H](F)C4=CC(=O)C=C[C@]4(C)[C@@]3(Cl)[C@@H](O)C[C@@]2(C)[C@@H]1C(=O)COC(=O)C(C)(C)C,AC50,Cytochrome P450 3A4,0.398 µM (inconclusive)
O=C(N/N=C1/C[C@@H](O)[C@@H](O)[C@@H]2[C@H]3C(=O)N(c4ccc(F)cc4F)C(=O)[C@@H]3CC[C@@H]12)OCc1ccccc1,AC50,Cytochrome P450 3A4,3.98 µM (inconclusive)
C=CCCCCCCCCC(=O)Nc1cnc(O)nc1O,AC50,Cytochrome P450 3A4,10 µM (inconclusive)
Cc1c(Cl)cccc1NC(=O)C(=O)NNC(=O)c1ccccc1F,IC50,cells,15 µM (active)
Cc1nc2cnc(N(C)C)nc2n(C)c1=O,AC50,Cytochrome P450 3A4,15.8 µM (inconclusive)
O=C(NC1CC1)c1cccc2c1C(=O)c1ccc(N3CCC(Cc4ccccc4)CC3)cc1S2(=O)=O,EC50,[3],7.05 µM (active)
Cc1noc(C)c1C(=O)N1CCC2(CCN(C(=O)NC(C)C)CC2)CC1,AC50,Cytochrome P450 1A2,5.01 µM (inconclusive)
Cc1ccc(CSc2nnc([C@@H]3CCCN3)o2)cc1,AC50,Cytochrome P450 3A4,3.55 µM (inconclusive)
same,AC50,Cytochrome P450 2C9,10 µM (inconclusive)
Cc1ccc(NC(=O)CO/N=C/c2ccc(N(C)C)cc2)cc1,IC50,cells,> 50 µM (active)
COc1ccc2nc(SCC(=O)Nc3ccc4c(c3)OCCO4)[nH]c2c1,AC50,Cytochrome P450 3A4,6.31 µM (inconclusive)
C=C1[C@@H](O)C2C=CC[C@H](C)C(=O)[C@@](C)(O)C=C[C@@H](OC(C)=O)[C@@]23C(=O)N[C@H](Cc2ccccc2)[C@@H]3[C@@H]1C (stereo partly specified),AC50,Cytochrome P450 3A4,15.8 µM (inconclusive)
same,AC50,Cytochrome P450 2C9,31.6 µM (inconclusive)
O=C(COc1ccc2ccccc2c1)N/N=C/c1ccccn1,IC50,cells,> 50 µM (active)
Cc1ccc(CN2CCN(/N=C/c3ccc(Cl)c([N+](=O)[O-])c3)CC2)cc1,EC50,[1],> 60 µM (not active)
same,EC50,[2],1.31 µM (active)
COc1ccccc1CNc1ncnc2ccc(-c3ccc(N(C)C)cc3)cc12,AC50,Cytochrome P450 2C9,0.631 µM (inconclusive)
Cc1nnc2ccc(-c3cccc(C(F)(F)F)c3)nn12 [CI-218872],AC50,Cytochrome P450 3A4,31.6 µM (inconclusive)
c1ccc(C2CC2)c(OCC2=NCCN2)c1 [CIRAZOLINE],AC50,Cytochrome P450 1A2,15.8 µM (inconclusive)
